Experimental data from US6723733B2, “Sulfonamide and carbamide derivatives of 6(5H)phenanthridinones and their uses” (Guilford Pharmaceuticals, Inc., priority 2000, dated 2004).

Tests used:
rabbits = conditions: cited from earlier work
male Long-Evans rats = test: Focal cerebral ischemia (MCA cauterization with temporary bilateral CCA occlusion); type: in vivo, rat; conditions: 24 h, mean±SD
Experimental: Focal cerebral ischemia is produced by cauterization of the right distal MCA (middle cerebral artery) with bilateral temporary common carotid artery occlusion in male Long-Evans rats for 90 minutes. All procedures performed on the animals are approved by the University Institutional Animal Care and Use Committee of the University of Pennsylvania. A total of 42 rats (weights: 230-340 g) obtained from Charles River were used in this study. The animals fasted overnight with free access to water prior to the surgical procedure
Two hours prior to MCA occlusion, varying amounts (control, n=14; 5 mg/kg, n=7; 10 mg/kg, n=7; 20 mg/kg, n=7; and 40 mg/kg, n=7) of the compound, 3,4-dihydro-5-[4-(1-piperidinyl)-butoxy]-1(2H)-isoquinolinone (“DPQ”) were dissolved in dimethyl sulfoxide (DMSO) using a sonicator. A volume of 1.28 ml/kg of the resulting solution was injected intraperitoneally into […].
The rats were then anesthetized with halothane (4% for induction and 0.8%-1.2% for the surgical procedure) in a mixture of 70% nitrous oxide and 30% oxygen. The body temperature was monitored by a rectal probe and maintained at 37.5±0.5° C. with a heating blanket regulated by a homeothermic blanket control unit (Harvard Apparatus Limited, Kent, U.K.). A catheter (PE-50) was placed into the tail artery, and arterial pressure was continuously monitored and recorded on a Grass polygraph recorder (Model 7D, Grass Instruments, Quincy, Mass.). Samples for blood gas analysis (arterial pH, PaO2 and PaCO2) were also taken from the tail artery catheter and measured with a blood gas analyzer (ABL 30, Radiometer, Copenhagen, Denmark). Arterial blood samples were obtained 30 minutes after MCA occlusion.
The head of the animal was positioned in a stereotaxic frame, and a right parietal incision between the right lateral canthus and the external auditory meatus was made. Using a dental drill constantly cooled with saline, a 3 mm burr hole was prepared over the cortex supplied by the right MCA, 4 mm lateral to the sagittal suture and 5 mm caudal to the coronal suture. The dura mater and a thin inner bone layer were kept, care being taken to position the probe over a tissue area devoid of large blood vessels. The flow probe (tip diameter of 1 mm, fiber separation of 0.25 mm) was lowered to the bottom of the cranial burr hole using a micromanipulator. The probe was held stationary by a probe holder secured to the skull with dental cement. The microvascular blood flow in the right parietal cortex was continuously monitored with a laser Doppler flowmeter (FloLab, Moor, Devon, U.K., and Periflux 4001, Perimed, Stockholm, Sweden). […]

Swiss albino mice = test: MSU crystal-induced neutrophil recruitment (gout model, peritonitis); type: in vivo, mouse; conditions: 45 mg/kg i.p.
Experimental: Male outbread Swiss albino mice (20-22 g body weight) were purchased from Banton and Kingsman (T.O. strain; Hull, Humberside) and maintained on a standard chow pellet diet with tap water ad libitum and a 12:00 h light/dark cycle. All animals were housed for 1 week prior to experimentation to allow body weight to reach 28-30 g.
1,1,1lb-dihydrobenzopyrano[4,3,2-de]isoquinolin-1-one was dissolved in 100% DMSO at room temperature at a concentration of 45 mg in 2 ml. The compound was then injected into the peritoneal cavity, so as each mouse received a single dose corresponding to 45 mg/2 ml/kg (e.g. 60 μl for a mouse of 30 g). […]
MSU crystal-induced neutrophil recruitment was tested as follows. […] Peritonitis was induced by injection of 3 mg MSU crystals in 0.5 ml PBS (0.1 M, pH 7.4), and the recruitment of neutrophils into the cavity evaluated at the 6 h time point (Getting et al., 1997, J. Pharmacol. Exp. Ther. 283: 123-130). […]
An aliquot (100 μl) of the lavage fluid was then diluted 1:10 in Turk's solution (0.01% crystal violet in 3% acetic acid). The samples were then vortexed and 10 μl of the stained cell solution were placed in a Neubauer haematocymometer and neutrophils numbers counted using a light microscope (Olympus B061). […]
Data are shown for single mice, and also shown as mean±S.E. of (n) mice per group. Statistical differences were determined by ANOVA, plus Bonferroni test. […]

Structure (SMILES): NC(=O)c1cccc(N)c1 [3-amino-benzamide]
- reduction in infarct size in the heart (rabbits; single injection 10 mg/kg, one minute before occlusion or before reperfusion): 32-42%

Structure (SMILES): Oc1cccc2c(O)nccc12 [1,5-dihydroxyisoquinoline]
- reduction in infarct size (rabbits; single injection 1 mg/kg): 38-48%

Structure (SMILES): O=C1NCCc2c(OCCCCN3CCCCC3)cccc21 [DPQ, 3,4-dihydro-5-[4-(1-piperidinyl)-butoxy]-1(2H)-isoquinolinone]
- damaged volume (total volume of infarction) (male Long-Evans rats; 5 mg/kg i.p. 2 h before and 2 h after MCA occlusion, control 165.2±34.0, p<0.001): 106.7±23.2 mm^3
- damaged volume (total volume of infarction) (male Long-Evans rats; 10 mg/kg i.p. 2 h before and 2 h after MCA occlusion, control 165.2±34.0 mm^3, p<0.001): 76.4±16.8 mm
- damaged volume (total volume of infarction) (male Long-Evans rats; 20 mg/kg i.p. 2 h before and 2 h after MCA occlusion, control 165.2±34.0, p<0.01): 110.2±42.0 mm^3
- damaged volume (total volume of infarction) (male Long-Evans rats; 40 mg/kg i.p. 2 h before and 2 h after MCA occlusion, no significant difference from control 165.2±34.0): 135.6±44.8 mm^3

Structure (SMILES): O=C1N=Cc2cccc3c2C1c1ccccc1O3 (centres unmarked) [1,11b-dihydrobenzopyrano[4,3,2-de]isoquinolin-1-one]
- inhibition of cell influx vs. the vehicle group (Swiss albino mice; 6 h after MSU crystals): 55%
- Neutrophils (10^6 per mouse), mean ± S.E. (Swiss albino mice; group C, MSU crystals (3 mg), 6 h, n=8, P < 0.05 vs. vehicle group B (6.30 ± 0.33)): 2.85 ± 0.34 (8) * 10^6 per mouse
